Tests used:
Type in all cases: cell-based
[1] = tested on: normal human lung fibroblasts (NHLF), TGFβ-induced alpha-smooth muscle actin; assay: Inhibition of the myofibroblast transition of normal human lung fibroblasts (NHLF); details: Fibroblast; 1 ng/mL human TGFβ, 24 h, alpha-smooth muscle actin western blot; read-out: inhibition of NHLF myofibroblast transition pIC50 (-log IC50) (converted)
Experimental: Method for Determination of the Inhibition of the Myofibroblast Transition of Normal Human Lung Fibroblasts (NHLF)
200,000 NHLF-cells were seeded into each well of six-well cell culture plates in full-medium and starved for 24 h after initial 24 h incubation at 37° C., 5% CO2 and 95% humidity. Before inducing fibroblast-to-myofibroblast conversion by adding 1 ng/mL human TGFβ serial dilution of test compound was administered. After 24 h the cells were collected and processed to lysates as described subsequently.
Cells were washed, twice in PBS, trypsinated and centrifuged at 500×g for 10 min. Afterwards the cell pellet was resuspended in 150 microL freshly prepared lysis buffer (50 mM Hepes, pH 7.5, 150 mM NaCl, 1.5 mM MgCl2, 10% […], 1% Triton X-100, 0.5% Desoxycholat, 0.2% SDS, 1 mM EGTA (ethylene glycol tetraacetic acid), 100 mM NaF, 10 mM Na4P2O7, 1 mM Na-Vanadat, 1 mM PMSF and 50 U/mL Benzonase (Merck KGaA, Darmstadt, Germany), one Phosphatase Inhibitor Cocktail tablet (Complete Mini from Roche Diagnostics, Mannheim, Germany) per 10 ml buffer and stored at −80° C. for further use. Protein concentration was determined following instructions of the BCA Protein Assay (Pierce Biotechnology, Rockford, Ill., USA). Photometric measurements were performed with the microplate reader Sunrise from Tecan Group Ltd., (Männedorf, Switzerland). 6 μg of protein of the different samples were separated on a 10% SDS (Sodium Dodecyl Sulfate) discontinuous polyacrylamide gel electrophoresis. Thereafter, proteins were blotted from the gel onto a nitrocellulose transfer membrane for 2 h at 400 mA in a wet-blot-chamber. Thereafter the membrane was blocked in 5% milkpowder in PBS (Phosphate Buffered Saline) containing 0.1% Tween 20 at 4° C. overnight. Subsequently the membrane was hybridized for 4 h with the primary anti-Alpha-smooth muscle actin antibody (1:2,000 in 5% milkpowder in PBS), washed three times in PBS containing 0.1% Tween 20. This was followed by incubation with the secondary horseradish-coupled goat anti-mouse IgG detection-antibody (1:10,000 in 5% milkpowder in PBS) for 2 h. After final washing with PBS containing 0.1% Tween 20 (three times for 10 min each) the blot was developed by using a chemiluminescence detection system according to the manufacturer instructions and a luminescent image analyzer (Fuji LAS 1000 Pro).
The numbers of the compounds correspond to the examples numbers.

[2] = tested on: TNFalpha release in human peripheral blood mononuclear cells (PBMC) stimulated with LPS; assay: Inhibition of LPS induced TNFalpha release in human PBMCs; details: 1 ng/mL LPS, 24 hours, reported as range bins, read-out: Inhibition of LPS induced TNFalpha release in human PBMCs pIC30 (-log IC30)
Experimental: Method for Measuring the Inhibition of TNFalpha Release in Human Peripheral Blood MononuClear Cells (PBMC) Stimulated with LPS:
Assay was performed with some modifications of the method described by Hatzelmann and Schudt (Hatzelmann and Schudt 2001, J. Pharmacol. Exp. Therapeutics 297: 267-279) and the protocol “drawing of venous blood from healthy volunteers for in vitro studies” was approved by the ethics committee of the Landesärztekammer Baden Württemberg in Stuttgart. Peripheral blood mononuclear cells (PBMCs) were isolated from venous blood with the anticoagulant citrate from healthy donors according to standard protocols using Ficoll. The cell layer of PBMCs were washed twice with phosphate buffer solution and equilibrated at room temperature for 60 minutes. 500,000 PBMCs in 180 microL RPMI1640 cell medium supplemented with 10% FCS, NEAA (Non-essential-amino-acids), L-Glutamine and Sodium Pyruvate per sample were pre-incubated with 10 microL of a serial dilution of test compound or piclamilast as positive control for 60 min. at 37° C. After pre-incubation blood samples were stimulated by the addition of 10 microL LPS (Sigma, Aldrich) per sample resulting in a final concentration of 1 ng/mL LPS and a final volume of 200 microL. Cells were incubated for 24 hours at 37° C. TNFalpha levels were determined from cell supernatant that was obtained by a centrifugation step and transferring the supernatant to a new 96-well plate. Content of TNFalpha was determined via alphaLISA Technology according to manufacture protocol (Perkin Elmer).
(§1) PBMC samples that were not stimulated with LPS were used as control and set for 100% inhibition. PBMC samples that were stimulated with LPS and solvent instead of test compound were set as 0% inhibition. Percent inhibition was calculated based on these controls for each sample and since most compounds achieved saturating maximal inhibition of 60% a pIC30 value was calculated with GraphPad Prism Software.
For the following compounds the inhibitory values of TNFalpha release [determined as −log IC30=pIC30] in human PBMCs between 5.0 and 5.9, between 6.0 and 6.9, between 7.0 and 7.9 and between 8.0 and 9.0 have been determined. The numbers of the compounds correspond to the examples numbers.
Inhibition of LPS Induced TNFalpha Release Assay in Human PBMCs: pIC30

[3] = tested on: TNFalpha release in human whole blood stimulated with LPS; assay: Inhibition of LPS induced TNFalpha release in human whole blood; details: 1 microg/mL LPS, 4 hours, reported as range bins, read-out: Inhibition of LPS induced TNFalpha release in human whole blood pIC30 (-log IC30)
Experimental: Method for Measuring the Inhibition of TNFalpha Release in Human Whole Blood Stimulated with LPS:
Assay was performed with some modifications of the method described by Hatzelmann and Schudt (Hatzelmann and Schudt (2001) JPET 297: 267-279) and the protocol “drawing of venous blood from healthy volunteers for in vitro studies” was approved by the ethics committee of the Landesärztekammer Baden Württemberg in Stuttgart.
Heparinised venous blood was equilibrated to assay conditions for 1 hour at room temperature upon blood drawing. Immediately thereafter, 200 microL whole blood per sample were pre-incubated with 25 microL of a serial dilution of test compound or piclamilast as positive control for 30 min. at 37° C. After pre-incubation blood samples were stimulated by the addition of 25 microL lipopolysaccharide (LPS) (Sigma, Aldrich) per sample resulting in a final concentration of 1 microg/mL LPS and a final volume of 250 microL. Cells were incubated for 4 hours at 37° C. TNFalpha levels were determined from plasma that was obtained by a centrifugation step and transferring the supernatant to a new 96-well plate which was again centrifuged and clear plasma supernatant was used for the measurement of TNFalpha via alphaLISA Technology according to manufacture protocol (Perkin Elmer).
as §1, with “Whole blood” for “PBMC”
For the following compounds the inhibitory values of TNFalpha release [determined as −log IC30=pIC30] in the human whole blood assay between 4.5 and 4.9, between 5.0 and 5.9 and between 6.0 and 6.9 have been determined. The numbers of the compounds correspond to the examples numbers.
Inhibition of LPS Induced TNFalpha Release Assay in Human Whole Blood: pIC30

Q: With `O=C(O)/C=C/c1cccc(NC(=O)c2cc(-c3ccccc3)cc3ccccc23)c1` [Example 1, (2E)-3-(3-{[(3-phenylnaphthalen-1-yl)carbonyl]amino}phenyl)prop-2-enoic acid] as the compound, how does the IC50 [1] read?
A: 0.316 to 3.16 nM

Q: And the IC30 [2]?
A: 1 to 10 nM

Q: What about the IC30 [3] of the same compound?
A: 126 to 1000 nM

Q: With `O=C(O)/C=C/c1ccc(F)c(NC(=O)c2cc(-c3ccccc3)cc3ccccc23)c1` [Example 2, (2E)-3-(4-fluoro-3-{[(3-phenylnaphthalen-1-yl)carbonyl]amino}phenyl)prop-2-enoic acid] as the compound, how does the IC50 [1] read?
A: 0.316 to 3.16 nM

Q: What about the IC30 [2] of the same compound?
A: 1 to 10 nM

Q: What about the IC30 [3] of the same compound?
A: 126 to 1000 nM

Q: For `O=C(O)/C=C/c1ccc(Cl)c(NC(=O)c2cc(-c3ccccc3)cc3ccccc23)c1` [Example 3, (2E)-3-(4-chloro-3-{[(3-phenylnaphthalen-1-yl)carbonyl]amino}phenyl)prop-2-enoic acid], which IC30 [3] is on record?
A: 12600 to 31600 nM

Q: Which IC50 [1] does the source give for `O=C(O)/C=C/c1ccc(F)c(NC(=O)c2cc(-c3ccccc3F)cc3ccccc23)c1` [Example 9, (2E)-3-{3-[({3-[2-fluorophenyl]naphthalen-1-yl}carbonyl)amino]-4fluorophenyl}prop-2-enoic acid] here?
A: 0.316 to 3.16 nM

Q: And the IC30 [2]?
A: 12.6 to 100 nM

Q: What about the IC30 [3] of the same compound?
A: 126 to 1000 nM

Q: How did the IC50 [1] turn out when `O=C(O)/C=C/c1ccc(F)c(NC(=O)c2cc(-c3cccc(F)c3)cc3ccccc23)c1` [Example 10, (2E)-3-{3-[({3-[3-fluorophenyl]naphthalen-1-yl}carbonyl)amino]-4fluorophenyl}prop-2-enoic acid] was run?
A: 0.316 to 3.16 nM

Q: What about the IC30 [2] of the same compound?
A: 1 to 10 nM

Q: And the IC30 [3]?
A: 126 to 1000 nM

Reference: US9309187B2, “EP2 receptor agonists” (TAKEDA GMBH, priority 2012, dated 2016)
